Reference: paper PMC5034043 (The Journal of Biological Chemistry, 2016)
Where two headings read alike, the source gives them in different places.

Test system: T1, synaptosomal proteome
T1 construct: from tissue; host or cells: brain synaptosomes of male C57/B6 mice
Assay type: binding, mouse
Procedure: Synaptosomes were resuspended to 1 mg of protein/ml in HEPES buffer medium (in mM: 140 NaCl, 5 KCl, 5 NaHCO3, 1.2 NaH2PO4, 1 MgCl2, 10 glucose, and 10 HEPES (pH 7.4)). […] The samples were allowed to equilibrate for 5 min before being transferred to a parafilm-sealed 1-mm path length quartz cuvette. The sample was then irradiated for 20 min at a peak bandwidth of 350 nm (Rayonet RPR-3500 lamp) ∼6 cm from the light source. Non-irradiated samples were left in the dark at ambient temperature (22–25 °C) for 20 min. All remaining procedures were conducted with restricted light exposure.
To 750 μg of photolabeled or control synaptosome samples, 40 μl of 10% SDS and 2 μl of 5 mM DTT in water were added. Samples were then vortexed, heated for 10 min at 65 °C, and then briefly cooled. Final concentrations of 150 μM azide-biotin (Click Chemistry Tools), 2 mM tris(3-hydroxypropyltriazolylmethyl)amine (Sigma), 1 mM ascorbic acid (Sigma), and 1 mM CuSO4·5H2O (Sigma) were added to each sample and vortexed vigorously. The samples were left in the dark at ambient temperature (22–25 °C) for 1 h with mild agitation. Directly to each sample 4× volume chilled methanol, 1.5× chilled chloroform, and 3× chilled double distilled H2O were added. Samples were vortexed vigorously and centrifuged at 1,400 × g for 30 min at 4 °C. Both liquid layers were carefully removed, and the protein pellet was washed with 2 ml of 1:1 (v/v) chilled methanol/chloroform. Samples were centrifuged at 3,500 × g for 30 min at 4 °C. Protein pellets were briefly air-dried before further processing.
750 μg of biotin-conjugated protein sample was resuspended in 500 μl of 25 mM NH4HCO3 and 6 M urea in water. Next, 150 μl of 5% Triton X-100 in water, 50 μl of 10% SDS in water, and 1.5 μl of 0.5 M DTT were added. The samples were heated for 15 min at 65 °C. After briefly cooling, 14 μl of 0.5 M iodoacetamide in water was added, and the sample was left in the dark for 45 min. […] The supernatant was diluted to 4 ml with PBS, and 2 ml of PBS containing 100 μl of 50% streptavidin-agarose resin (Thermo Scientific) was added. Biotinylated proteins within the sample were captured over resin overnight at 4 °C with mild agitation. The resin was first washed with 6 ml of 1% SDS in PBS, and then 7 ml of 0.1 M urea in PBS followed by 10 ml of PBS. The resin underwent a final wash with 0.9 ml of 50 mM Tris-HCl and 1 mM CaCl2 in water (pH 8.0) and then resuspended in 200 μl of 50 mM Tris-HCl, 1 mM CaCl2 in water (pH 8.0), and 2 μg of porcine sequencing grade trypsin (Promega). Samples were digested overnight at 37 °C. Samples were then centrifuged at 2,000 × g for 4 min, and digest supernatant was decanted. Beads were washed in 100 μl of PBS centrifuged at 5,200 × g for 5 min, and the wash was combined with the digest supernatant. To the combined sample, trifluoroacetic acid (TFA) was added to 0.4% (v/v) or until pH <2. The sample was desalted with Oasis C18 10-mg columns (Waters) as described previously ([66]). The eluted sample was dried by speed vac and resuspended in 0.1 M HEPES buffer (pH 8.5). […] Appropriate corresponding TMTsixplex^TM-labeled samples were pooled and dried by speed vac. The combined samples were resuspended in 0.5% acetic acid in water and pH-corrected with acetic acid until pH was <2. 40 μg of protein was desalted with C18 stage tips prepared in-house and dried by speed vac.
Samples were resuspended in 10 mM KH2PO4 (pH 2.6), 30% acetonitrile (v/v) in water, and fractionated by off-line strong cation exchange chromatography prior to mass spectrometry (MS) analysis similar to as reported previously ([66]). The full synaptosome proteome control was prepared similarly without TMTsixplex^TM labeling.
All TMT samples were analyzed with three-stage mass spectrometry (MS3) TMTsixplex^TM quantification workflow as described previously ([34]).

[1] = protein A2AGI3 Neuroligin-3 (Nlgn3)
[2] = protein A2AWI7 Endophilin-B2 (Sh3glb2)
[3] = protein D3Z5T2 Armadillo repeat-containing protein 10 (Armc10)
[4] = protein E9Q3V6 Septin-2 (Sept2)
[5] = protein F7C846 Metaxin-1 (Mtx1)
[6] = protein F8WGD9 1-acyl-sn-glycerol-3-phosphate acyltransferase epsilon (Agpat5)
[7] = protein G3UYZ1 Immunoglobulin superfamily member 8 (Igsf8)
[8] = protein G5E829 Plasma membrane calcium-transporting ATPase 1 (Atp2b1)
[9] = protein O09111 NADH dehydrogenase [ubiquinone] 1 beta subcomplex subunit 11, mitochondrial (Ndufb11)
[10] = protein O35114 Lysosome membrane protein 2 (Scarb2)
[11] = protein O35526 Syntaxin-1A (Stx1a)
[12] = protein O35874 Neutral amino acid transporter A (Slc1a4)

C#CCOCc1ccc(C2(C(F)(F)F)N=N2)cc1O [AziPm-click (1), 2-((prop-2-yn-1-yloxy)methyl)-5-(3-(trifluoromethyl)-3H-diazirin-3-yl)phenol]
Log2( Mean 'UV/ No UV') (B1AU25 Aifm1): 4.01 | TMT Ratio Mean 'UV/ No UV' (B1AU25 Aifm1): 16.13 | Log2( Mean 'UV/ No UV') (O35633-2 Slc32a1): 4.34 | Log2( Mean 'UV/ No UV') (O35678 Mgll): 4.63 | TMT Ratio Mean 'UV/ No UV' (O35678 Mgll): 24.71 | Log2( Mean 'UV/ No UV') (P07724 Alb): 4.39 | TMT Ratio Mean 'UV/ No UV' (P07724 Alb): 20.95 | Log2( Mean 'UV/ No UV') (P08226 Apoe): 3.80 | TMT Ratio Mean 'UV/ No UV' (P08226 Apoe): 13.94 | Log2( Mean 'UV/ No UV') (P17665 Cox7c): 4.31 | TMT Ratio Mean 'UV/ No UV' (P17665 Cox7c): 19.82 | Log2( Mean 'UV/ No UV') (P19157 Gstp1): 3.61 | TMT Ratio Mean 'UV/ No UV' (P19157 Gstp1): 12.21 | Log2( Mean 'UV/ No UV') (P23242 Gja1): 3.58 | TMT Ratio Mean 'UV/ No UV' (P23242 Gja1): 11.95 | Log2( Mean 'UV/ No UV') (P31648 Slc6a1): 4.60 | TMT Ratio Mean 'UV/ No UV' (P31648 Slc6a1): 24.21 | Log2( Mean 'UV/ No UV') (P35279 Rab6a): 3.67 | TMT Ratio Mean 'UV/ No UV' (P35279 Rab6a): 12.71 | Log2( Mean 'UV/ No UV') (P40237 Cd82): 3.95 | TMT Ratio Mean 'UV/ No UV' (P40237 Cd82): 15.49 | Log2( Mean 'UV/ No UV') (P42125 Eci1): 4.01 | TMT Ratio Mean 'UV/ No UV' (P42125 Eci1): 16.13 | Log2( Mean 'UV/ No UV') (P51150 Rab7a): 3.54 | TMT Ratio Mean 'UV/ No UV' (P51150 Rab7a): 11.65 | Log2( Mean 'UV/ No UV') (P60879-2 Snap25): 4.57 | Log2( Mean 'UV/ No UV') (P61294 Rab6b): 3.78 | TMT Ratio Mean 'UV/ No UV' (P61294 Rab6b): 13.75 | Log2( Mean 'UV/ No UV') (P61620 Sec61a1): 4.06 | TMT Ratio Mean 'UV/ No UV' (P61620 Sec61a1): 16.63 | Log2( Mean 'UV/ No UV') (P63011 Rab3a): 3.83 | TMT Ratio Mean 'UV/ No UV' (P63011 Rab3a): 14.19 | Log2( Mean 'UV/ No UV') (P63037 Dnaja1): 3.64 | TMT Ratio Mean 'UV/ No UV' (P63037 Dnaja1): 12.46 | Log2( Mean 'UV/ No UV') (P63213 Gng2): 3.65 | TMT Ratio Mean 'UV/ No UV' (P63213 Gng2): 12.51 | Log2( Mean 'UV/ No UV') (Q5ICG5 Acsl6): 3.88 | TMT Ratio Mean 'UV/ No UV' (Q5ICG5 Acsl6): 14.71 | Log2( Mean 'UV/ No UV') (Q5SW88 Rab1): 3.58 | TMT Ratio Mean 'UV/ No UV' (Q5SW88 Rab1): 11.95 | Log2( Mean 'UV/ No UV') (Q8BXV2 Bri3bp): 3.89 | TMT Ratio Mean 'UV/ No UV' (Q8BXV2 Bri3bp): 14.84 | Log2( Mean 'UV/ No UV') (Q8C3X2 Ccdc90b): 4.00 | TMT Ratio Mean 'UV/ No UV' (Q8C3X2 Ccdc90b): 16.04 | Log2( Mean 'UV/ No UV') (Q8K4X7 Agpat4): 4.25 | TMT Ratio Mean 'UV/ No UV' (Q8K4X7 Agpat4): 18.96 | Log2( Mean 'UV/ No UV') (Q8R5J9 Arl6ip5): 4.56 | TMT Ratio Mean 'UV/ No UV' (Q8R5J9 Arl6ip5): 23.65 | Log2( Mean 'UV/ No UV') (Q9CXJ4 Abcb8): 3.93 | TMT Ratio Mean 'UV/ No UV' (Q9CXJ4 Abcb8): 15.28 | Log2( Mean 'UV/ No UV') (Q9CZS1 Aldh1b1): 4.40 | TMT Ratio Mean 'UV/ No UV' (Q9CZS1 Aldh1b1): 21.11 | Log2( Mean 'UV/ No UV') (Q9CZT8 Rab3b): 3.73 | TMT Ratio Mean 'UV/ No UV' (Q9CZT8 Rab3b): 13.26 | Log2( Mean 'UV/ No UV') (Q9D5T0 Atad1): 3.65 | TMT Ratio Mean 'UV/ No UV' (Q9D5T0 Atad1): 12.57 | Log2( Mean 'UV/ No UV') (Q9EP69 Sacm1l): 4.04 | TMT Ratio Mean 'UV/ No UV' (Q9EP69 Sacm1l): 16.45 | Log2( Mean 'UV/ No UV') (Q9ER00 Stx12): 3.85 | TMT Ratio Mean 'UV/ No UV' (Q9ER00 Stx12): 14.40 | Log2( Mean 'UV/ No UV') (Q9Z2I0 Letm1): 4.32 | TMT Ratio Mean 'UV/ No UV' (Q9Z2I0 Letm1): 19.93 | Log2( Mean 'UV/ No UV') (Q80ZW2 Them6): 4.50 | TMT Ratio Mean 'UV/ No UV' (Q80ZW2 Them6): 22.62 | Log2( Mean 'UV/ No UV') (Q99JY8 Ppap2b): 4.16 | TMT Ratio Mean 'UV/ No UV' (Q99JY8 Ppap2b): 17.86 | Log2( Mean 'UV/ No UV') (Q00915 Rbp1): 4.46 | TMT Ratio Mean 'UV/ No UV' (Q00915 Rbp1): 22.07 | Log2( Mean 'UV/ No UV') (Q60771 Cldn11): 4.48 | TMT Ratio Mean 'UV/ No UV' (Q60771 Cldn11): 22.33 | Log2( Mean 'UV/ No UV') [1]: 3.89 | TMT Ratio Mean 'UV/ No UV' [1]: 14.80 | Log2( Mean 'UV/ No UV') [2]: 3.55 | TMT Ratio Mean 'UV/ No UV' [2]: 11.67 | Log2( Mean 'UV/ No UV') [3]: 3.94 | TMT Ratio Mean 'UV/ No UV' [3]: 15.34 | Log2( Mean 'UV/ No UV') [4]: 4.02 | TMT Ratio Mean 'UV/ No UV' [4]: 16.25 | Log2( Mean 'UV/ No UV') [5]: 4.31 | TMT Ratio Mean 'UV/ No UV' [5]: 19.87 | Log2( Mean 'UV/ No UV') [6]: 4.62 | TMT Ratio Mean 'UV/ No UV' [6]: 24.62 | Log2( Mean 'UV/ No UV') [7]: 3.89 | TMT Ratio Mean 'UV/ No UV' [7]: 14.81 | Log2( Mean 'UV/ No UV') [8]: 3.59 | TMT Ratio Mean 'UV/ No UV' [8]: 12.05 | Log2( Mean 'UV/ No UV') [9]: 3.68 | TMT Ratio Mean 'UV/ No UV' [9]: 12.78 | Log2( Mean 'UV/ No UV') [10]: 4.27 | TMT Ratio Mean 'UV/ No UV' [10]: 19.35 | Log2( Mean 'UV/ No UV') [11]: 3.50 | TMT Ratio Mean 'UV/ No UV' [11]: 11.31 | Log2( Mean 'UV/ No UV') [12]: 4.57 | TMT Ratio Mean 'UV/ No UV' [12]: 23.78 | Log2( Mean 'UV/ No UV') (protein O35963 Ras-related protein Rab-33B (Rab33b)): 4.02
